Source: US12421212B2, “Substituted benzenecarboxamides as IL-17A modulators” (DiCE Alpha, Inc., priority 2019, dated 2025)

Biological target: T1, IL-17A/A (Homo sapiens, UniProt Q16552)
T1 construct: purchased Genscript Z03228
T1 sequence (Q16552 24-155): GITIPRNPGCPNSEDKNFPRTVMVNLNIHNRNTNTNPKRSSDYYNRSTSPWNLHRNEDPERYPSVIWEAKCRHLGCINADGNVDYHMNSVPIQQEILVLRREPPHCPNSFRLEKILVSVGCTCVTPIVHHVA
Assay: IL-17A/A HEK-Blue Cell Assay
Assay type: cell-based
Conditions: HEK-Blue IL-17A reporter cell line, SEAP readout at A630, 20 hours incubation with IL-17A/A, top concentration 10 uM, 1 uM or 0.3 uM; for IC50: read-out: IL-17A/A inhibition (pIC50) (converted)

| IC50 [µM] | SMILES | IL-17A/A inhibition (pIC50) |
| --- | --- | --- |
| 0.1 to 10 | CCC(=O)N[C@@H](C(=O)N1CC(F)(F)C1)[C@@H](C)c1ccc(NC(=O)[C@@H](NC(=O)c2ccnn2CC)C2CCCCC2)c(F)c1 [Compound 629] |  |
| 0.01 to 0.1 | CCC(=O)N[C@@H](C(=O)N1CCN(C)CC1)[C@@H](C)c1ccc(NC(=O)[C@@H](NC(=O)c2coc3cc(OC)ccc23)C2CCCCC2)c(F)c1 [Compound 255] |  |
| 0.1 to 10 | CCC(=O)N[C@H](Cc1ccc(NC(=O)[C@@H](NC(=O)C(F)(F)c2cncs2)C2CCCCC2)c(F)c1)C(=O)N1CCN(C)CC1 [Compound 213] |  |
| 0.1 to 10 | CCn1nccc1C(=O)N[C@H](C(=O)Nc1ccc([C@H](C)[C@@H](NC(=O)c2cncn2C)C(=O)N2CCN(C)CC2)cc1F)C1CCCCC1 [Compound 657] |  |
| < 0.01 | CCc1nonc1C(=O)N[C@H](C(=O)Nc1ccc([C@H](C)C(NC(=O)C(C)F)C(=O)N2CCN(C)[C@@H](C)C2)cc1F)[C@H]1CC[C@H](C)CC1 (single isomer, unassigned) [Compound 594] |  |
| 0.1 to 10 | CCC(=O)N[C@H](Cc1ccc(NC(=O)[C@@H](NC(=O)c2ccnn2CC)C2CCCCC2)c(F)c1)C(=O)N1CCN(C2COC2)CC1 [Compound 770] |  |
|  | CCC(=O)N[C@H](Cc1ccc(NC(=O)[C@@H](NC(=O)c2nccn2CC)C2CCCCC2)c(F)c1)C(=O)N1CCN(C)CC1 [Compound 772] | X1a (compounds were evaluated up to 10 uM and did not inhibit activity by >80%, however they showed some activity at 10 uM (less than 80% and more than 20%)) |
| 0.01 to 0.1 | CCn1nccc1C(=O)N[C@H](C(=O)Nc1ccc([C@H](C)[C@@H](NC(=O)NC2CC2)C(=O)N2CCN(C)CC2)cc1)C1CCCCC1 [Compound 402] |  |
| 0.1 to 10 | CCC(=O)N[C@H](Cc1ccc(NC(=O)[C@@H](NC(=O)c2coc3ccccc23)C2CCCCC2)c(F)c1)C(=O)N1CCN(C)CC1 [Compound 632] |  |
| 0.1 to 10 | CCC(=O)N[C@H](Cc1ccc(NC(=O)[C@@H](NC(=O)c2ccnn2CC)C2CCCCC2)c(F)c1)C(=O)N1CCN(C)C[C@@H]1C [Compound 686] |  |
| 0.1 to 10 | CCC(=O)N[C@@H](C(=O)N1CCN(C)CC1)[C@@H](C)c1ccc(NC(=O)[C@@H](NC(=O)c2ccnn2C(C)C)C2CCCCC2)cc1 [Compound 633] |  |
| < 0.01 | COc1ccc(C(F)(F)C(=O)N[C@H](C(=O)Nc2ccc([C@H](C)[C@@H](NC(=O)c3cnns3)C(=O)N3CCN(C)CC3)cc2F)C2CCCCCC2)cn1 [Compound 331] |  |
| < 0.01 | C[C@@H](c1ccc(NC(=O)[C@@H](NC(=O)C(F)(F)c2cccc(C#N)c2)C2CCCCC2)c(F)c1)[C@@H](NC(=O)CC1CC1)C(=O)N1CCN(C)CC1 [Compound 308] |  |
| 0.01 to 0.1 | CCn1nccc1C(=O)N[C@H](C(=O)Nc1ccc([C@H](C)[C@@H](NC(=O)c2ccnn2C2CCN(C)CC2)C(=O)N2CCN(C)CC2)cc1F)[C@H]1CC[C@H](C)CC1 [Compound 486] |  |
| < 0.01 | CCn1cc(C(F)(F)C(=O)N[C@H](C(=O)Nc2ccc([C@H](C)[C@@H](NC(=O)c3cnns3)C(=O)N3CCN(C)CC3)cc2F)[C@H]2CC[C@H](C)CC2)cn1 [Compound 407] |  |
| < 0.01 | C[C@@H](c1ccc(NC(=O)[C@@H](NC(=O)C(F)(F)c2cncc(C#N)c2)C2CCCCCC2)c(F)c1)[C@@H](NC(=O)c1cnns1)C(=O)N1CCN(C)CC1 [Compound 335] |  |
| 0.01 to 0.1 | CCn1nccc1C(=O)N[C@H](C(=O)Nc1ccc([C@H](C)[C@@H](NC(=O)c2cncs2)C(=O)N2CCN(C)CC2)cc1F)C1CCCCC1 [Compound 303] |  |
|  | CCn1nccc1C(=O)N[C@H](C(=O)Nc1ccc(C[C@@H](Nc2ncc(C#N)c(OC)n2)C(=O)N2CCN(C)CC2)cc1F)C1CCCCC1 [Compound 701] | X2a (compounds were evaluated up to 1 uM and did not inhibit activity by >80%, however they showed some activity at 1 uM (less than 80% and more than 20%)) |
| 0.01 to 0.1 | CCc1nonc1C(=O)N[C@H](C(=O)Nc1ccc([C@H](C)[C@@H](NC(=O)c2c(OC)cnn2CC)C(=O)N2CCN(C)CC2)cc1F)[C@H]1CC[C@H](C)CC1 [Compound 577] |  |
